{"source": "paper PMC12455397", "about": "(Angewandte Chemie (International Ed. in English), 2025)", "key": {"THP1 cells": {"tested_on": "THP1 cells", "assay_type": "cell-based", "conditions": "THP-1 WT, 10 and 100 µM, 48 h", "quoted_text": "THP1 cells were exposed to the compounds for 48 hours at 10 and 100 μM. Viability was quantified using\npropidium iodide exclusion through flow cytometry. PI-positive cells (dead or necrotic cells) were quantified\nthrough red fluorescence on a BD C6 Accuri flow cytometer using a 488 nm excitation wavelength and an\nemission filter of 585 nm ± 40 nm (BD Biosciences). 50,000 events were collected (n = 3 technical replicates\nper condition). The experiment was repeated twice. Data are presented as mean ± SEM (n = 4‒10)."}, "[1]": {"tested_on": "NLRP3 inflammasome in macrophage-derived THP-1 cells", "experiment": "NLRP3 inflammasome / TLR4 activation in THP-1 macrophages (WB, ELISA)", "assay_type": "cell-based", "conditions": "100 µM, 24 h"}, "[2]": {"tested_on": "Nrf2-regulated genes (AKR1B10, NQO1, TRXR1, HO-1) in HaCaT human keratinocytes", "experiment": "HaCaT cell assay, RT-qPCR of Nrf2-regulated genes", "assay_type": "cell-based", "conditions": "WT HaCaT, 3, 1 and 0.33 µM, 5 h, normalized to TBP"}, "[3]": {"tested_on": "Nrf2-regulated genes (AKR1B10, NQO1, TRXR1, HO-1) in HaCaT human keratinocytes", "experiment": "HaCaT cell assay, Western Blotting of Nrf2-regulated proteins", "assay_type": "cell-based", "conditions": "24 h"}, "human Keap1 Kelch": {"target": "human Keap1 Kelch (Homo sapiens, UniProt Q14145)", "sequence (Q14145 321-609)": "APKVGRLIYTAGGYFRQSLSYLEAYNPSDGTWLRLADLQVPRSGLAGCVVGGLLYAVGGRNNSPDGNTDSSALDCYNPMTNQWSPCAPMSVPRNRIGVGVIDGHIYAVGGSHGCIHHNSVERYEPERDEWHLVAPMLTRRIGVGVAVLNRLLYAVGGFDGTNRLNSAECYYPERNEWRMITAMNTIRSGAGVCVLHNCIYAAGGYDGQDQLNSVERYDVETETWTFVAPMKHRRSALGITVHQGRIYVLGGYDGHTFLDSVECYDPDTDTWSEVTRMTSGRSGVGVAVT", "experiment": "Fluorescence polarization (FP) competition assay with Cy5-Nrf2 peptide probe", "conditions": "for Ki: ≥3 individual measurements", "quoted_text": "Fluorescence Polarization Assay\n(3 nM) and human Keap1 Kelch at 14 nM in the 1×HBSTET assay buffer, as previously.[1, 3-5] In short, the assay was performed in black flat-bottom 384-well plates (Corning Life Sciences, NY) allowing an assay volume of 30 μL/well. Proper mixing and elimination of air bubbles was ascertained by spinning down the plates and incubation for 10–15 minutes at RT before measuring FP levels on a Safire2 plate-reader (Tecan, Männedorf, Switzerland). The Ki values of the compounds were determined by dose-response experiments (12-points, 4% DMSO in all wells), where FP values were fitted to the equation Y = Bottom + (Top - Bottom)/[1 + (10HillSlope*(LogIC50-X))]; X representing the logarithmic value of compound concentration. The resulting IC50 value, together with the Kd value (the dissociation constant between probe and Keap1 Kelch, determined in a prior experiment) and Keap1 Kelch concentrations, was used to calculate the theoretical competitive inhibition constant, the Ki value.[18]"}, "[4]": {"tested_on": "IFN signalling in macrophage-derived THP-1 cells", "experiment": "Type I IFN signalling after IFNβ stimulation in THP-1 macrophages (WB)", "assay_type": "cell-based", "conditions": "100 µM, 24 h; IFNβ 500 U/mL 1 h"}, "[5]": {"tested_on": "NQO1 mRNA in BEAS-2B cells", "experiment": "qPCR-based BEAS-2B cell assay (NQO1 mRNA)", "parameters": "species or system human", "conditions": "Homo sapiens, BEAS-2B, mean ± SEM, 2-4 independent experiments", "procedure": "RT-qPCR were stimulated with compounds or DMSO diluted in DMEM and incubated for 24 h. DMSO was added accordingly to highest percentage compound volume added.\nUpon 24 hour compound stimulation, the cells were trypsinized, washed, spun down and resuspended in 70 μL of ice-cold Pierce RIPA lysis buffer (Thermo Scientific) supplemented with 10 mM NaF, 1× complete protease cocktail inhibitor (Roche), and 5 IU mL-1 benzonase (Sigma), respectively. The protein concentrations were determined using the BCA protein assay kit (Thermo Scientific) and samples was equalized accordingly to the sample of lowest protein concentration. 1×XT sample buffer (Bio-Rad) and 1×XT reducing agent (Bio-Rad) were added to the samples, and lysates were denatured by boiling for 5 min at 95 °C. Denatured samples was separated by SDS-PAGE on a 4–20% Criterion TGX precast gradient gel (Bio-Rad). The gel ran initially for 20 min at 70 V and 45 min at 120 V and was then transferred onto a PVDF membrane (Bio-Rad) using a Trans-Blot Turbo transfer system. […]\nUpon 5 hour compound stimulation, RNA was extracted from the cells using the High Pure RNA Isolation Kit (Roche, 11828665001) according to the manufacturer’s instructions. […] The quality and purity of the RNAs were assessed by Nanodrop spectrometry (DeNovix DS-11). Using the TaqMan detection systems, the gene expression of HO-1 (HMOX-1), NQO1, AKR1B10, and TRXR1 was determined by real-time PCR. […] The commercially available TaqMan assay (Thermo Fischer Scientific, cat. no. 4392938) was used, and samples were analyzed in a final volume of 10 μL reaction mix containing 5 μL of master mix, 0.2 μL of RT enzyme, 2.3 μL of nuclease-free water, […] (TATA-Box Binding Protein/TBP; […]\nHs00917067_m1, Thermo Fisher), and 2 μL of pure RNA. The samples were analyzed using a QuantStudioTM 3 real-time PCR instrument with the following program: 1 × (10 min, 48.0 °C; 10 min, 95.0 °C); 40 × (30 s, 95.0 °C; 1 min, 60.0 °C). […]\nThe upregulation of NQO1 mRNA in BEAS-2B cells was measured by qPCR, as previously described.[20] […]"}, "[6]": {"tested_on": "cGAS-STING pathway in macrophage-derived THP-1 cells", "experiment": "cGAS-STING pathway in THP-1 macrophages (WB)", "assay_type": "cell-based", "conditions": "100 µM, 24 h; cGAMP 4 µg/mL 6 h"}, "[7]": {"tested_on": "Nrf2 KO THP1 cells differentiated into macrophages", "experiment": "RNA sequencing transcriptome analysis, Nrf2 KO THP-1 macrophages", "assay_type": "cell-based", "conditions": "12 h, CDDO-Me 0.1 µM, DMF, 24, 28 10 µM, KI-696 1 µM"}, "[8]": {"tested_on": "differentiated THP1 macrophages (WT)"}, "[9]": {"conditions": "LPS or LPS+nigericin stimulation"}, "[10]": {"conditions": "WT, 12 h, CDDO-Me 0.1 µM, SFN, DMF, 24, 28 10 µM, KI-696 1 µM, NS = not significant"}}, "data": [{"smiles": "Cc1cc2c(cc1C(CC(=O)O)c1ccc3ccc(OCC(=O)NC4CCCCCC4)cc3c1)OCO2", "note": "(stereo not shown) [Compound 24]", "values": [{"measurement": "cell viability", "setting": "THP1 cells", "result": "did not reduce cell viability"}, {"measurement": "NLRP3 inflammasome activation: release of cleaved caspase-1 and cleaved IL-1β in supernatants (WB)", "setting": "[1]", "result": "markedly decreased NLRP3 inflammasome activation"}, {"measurement": "cleavage of gasdermin D (GSDMD) (WB)", "setting": "[1]", "result": "prevented the cleavage of gasdermin D"}, {"measurement": "IL-1β release (ELISA) following NLRP3 activation", "setting": "[1]; LPS 100 ng/mL 3 h + nigericin 10 µM 1 h", "result": "confirmed a decrease"}, {"measurement": "IL-1β release (ELISA) following high concentrations of LPS", "setting": "[1]; LPS 2 µg/mL 6 h", "result": "no statistical difference was observed"}, {"measurement": "expression of NLRP3 (WB)", "setting": "[1]; [9]", "result": "markedly reduced"}, {"measurement": "total protein levels of pro-IL-1β (WB)", "setting": "[1]; [9]", "result": "also reduced"}, {"measurement": "target gene mRNA expression (RT-qPCR)", "setting": "[2]", "result": "several‐fold increases in target gene mRNA expression"}, {"measurement": "protein levels of Nrf2-regulated genes by WB", "setting": "[3]; HaCaT, 10 µM", "result": "strong bands in WB for all tested proteins"}, {"measurement": "relative cell potency among the six compounds (WB)", "setting": "[3]; HaCaT, 10, 3, 1 µM", "result": "most potent"}, {"measurement": "Ki", "setting": "human Keap1 Kelch; FP (Ki/nM), Table S2, mean ± SEM, NA: not active (measured up to 4 mM)", "result": "10.1 ± 1.4", "unit": "nM"}, {"measurement": "Ki", "setting": "human Keap1 Kelch; Ki (FP), mean, text and figures", "result": 10, "unit": "nM"}, {"measurement": "fold difference in affinity (FP) between the enantiomers of 24", "setting": "human Keap1 Kelch; Peak 1 vs Peak 2 after chiral HPLC separation", "result": 14, "unit": "fold"}, {"measurement": "ligand efficiency (LE)", "setting": "human Keap1 Kelch; from FP Ki", "result": 0.30}, {"measurement": "IFN signalling (phosphorylated STAT1, IFIT1 protein levels) (WB)", "setting": "[4]", "result": "did not affect IFN signalling"}, {"measurement": "EC50", "setting": "[5]", "result": 110, "unit": "nM"}, {"measurement": "ISG15 levels (WB)", "setting": "[6]", "result": "reduced levels"}, {"measurement": "total STING levels and STING activation (phosphorylated STING and TBK1) (WB)", "setting": "[6]", "result": "reduced total STING levels and STING activation"}, {"measurement": "number of up- or downregulated genes in Nrf2 KO cells", "setting": "[7]", "result": 347, "unit": "genes"}, {"measurement": "AKR1B10 FC", "setting": "[8]; Table S3, THP-1, 12 h", "result": "6,62 fold"}, {"measurement": "CASP1 FC", "setting": "[8]; Table S3, THP-1, 12 h", "result": "0,65 fold"}, {"measurement": "COL1A1 FC", "setting": "[8]; Table S3, THP-1, 12 h", "result": "1,40 fold"}, {"measurement": "COL4A1 FC", "setting": "[8]; Table S3, THP-1, 12 h", "result": "1,16 fold"}, {"measurement": "COL4A2 FC", "setting": "[8]; Table S3, THP-1, 12 h", "result": "1,10 fold"}, {"measurement": "CYP1B1 FC", "setting": "[8]; Table S3, THP-1, 12 h", "result": "1,14 fold"}, {"measurement": "GPX1 FC", "setting": "[8]; Table S3, THP-1, 12 h", "result": "0,60 fold"}, {"measurement": "GPX4 FC", "setting": "[8]; Table S3, THP-1, 12 h", "result": "1,13 fold"}, {"measurement": "IFNAR1 FC", "setting": "[8]; Table S3, THP-1, 12 h", "result": "0,93 fold"}, {"measurement": "IFNAR2 FC", "setting": "[8]; Table S3, THP-1, 12 h", "result": "1,00 fold"}, {"measurement": "IFNGR1 FC", "setting": "[8]; Table S3, THP-1, 12 h", "result": "0,63 fold"}, {"measurement": "IFNGR2 FC", "setting": "[8]; Table S3, THP-1, 12 h", "result": "0,73 fold"}, {"measurement": "IL1B FC", "setting": "[8]; Table S3, THP-1, 12 h", "result": "0,85 fold"}, {"measurement": "IRF3 FC", "setting": "[8]; Table S3, THP-1, 12 h", "result": "0,96 fold"}, {"measurement": "LAMB1 FC", "setting": "[8]; Table S3, THP-1, 12 h", "result": "5,65 fold"}, {"measurement": "LAMB4 FC", "setting": "[8]; Table S3, THP-1, 12 h", "result": "4,43 fold"}, {"measurement": "MMP8 FC", "setting": "[8]; Table S3, THP-1, 12 h", "result": "0,79 fold"}, {"measurement": "MMP9 FC", "setting": "[8]; Table S3, THP-1, 12 h", "result": "0,91 fold"}, {"measurement": "MMP12 FC", "setting": "[8]; Table S3, THP-1, 12 h", "result": "0,51 fold"}, {"measurement": "NLRP3 FC", "setting": "[8]; Table S3, THP-1, 12 h", "result": "0,79 fold"}, {"measurement": "NOD2 FC", "setting": "[8]; Table S3, THP-1, 12 h", "result": "0,35 fold"}, {"measurement": "NOXA1 FC", "setting": "[8]; Table S3, THP-1, 12 h", "result": "0,41 fold"}, {"measurement": "SOCS1 FC", "setting": "[8]; Table S3, THP-1, 12 h", "result": "2,11 fold"}, {"measurement": "SOCS3 FC", "setting": "[8]; Table S3, THP-1, 12 h", "result": "2,26 fold"}, {"measurement": "SOD1 FC", "setting": "[8]; Table S3, THP-1, 12 h", "result": "0,41 fold"}, {"measurement": "SOD2 FC", "setting": "[8]; Table S3, THP-1, 12 h", "result": "0,59 fold"}, {"measurement": "STAT1 FC", "setting": "[8]; Table S3, THP-1, 12 h", "result": "0,82 fold"}, {"measurement": "TBK1 FC", "setting": "[8]; Table S3, THP-1, 12 h", "result": "0,86 fold"}, {"measurement": "TLR4 FC", "setting": "[8]; Table S3, THP-1, 12 h", "result": "1,17 fold"}, {"measurement": "TNFRSF1B FC", "setting": "[8]; Table S3, THP-1, 12 h", "result": "1,08 fold"}, {"measurement": "TRAP1 FC", "setting": "[8]; Table S3, THP-1, 12 h", "result": "0,82 fold"}, {"measurement": "cGAS FC", "setting": "[8]; Table S3, THP-1, 12 h", "result": "1,36 fold"}, {"measurement": "KEGG pathway analysis of upregulated genes", "setting": "[8]; WT, 10 µM, 12 h", "result": "activated other important gene clusters involved in cytokine receptor interaction and activation of immune cells"}, {"measurement": "Average FC of upregulated Nrf2-dependent genes", "setting": "[8]; WT, 12 h, CDDO-Me 0.1 µM, SFN, DMF, 24, 28 10 µM, KI-696 1 µM", "result": 2.7, "unit": "fold"}, {"measurement": "GCLM fold change vs vehicle", "setting": "[8]; [10]", "result": 3.0, "unit": "fold"}, {"measurement": "HMOX1 fold change vs vehicle", "setting": "[8]; [10]", "result": 2.2, "unit": "fold"}, {"measurement": "SRXN1 fold change vs vehicle", "setting": "[8]; [10]", "result": 2.5, "unit": "fold"}, {"measurement": "TXNRD1 fold change vs vehicle", "setting": "[8]; [10]", "result": 2.9, "unit": "fold"}, {"measurement": "NQO1 upregulation at 24 h", "setting": "[8]; WT, 24 h, 10 µM (footnote * of Figure 7c)", "result": 1.5, "unit": "fold"}]}]}
